Data reported in patent US6472391B2, “Nitrogen-containing heterocyclic compounds” (Millennium Pharmaceuticals, Inc., priority 1996, dated 2002).

Key:
Wistar-Kyoto rats = assay: Mesangial proliferative glomerulonephritis model (anti-Thy-1.1 antibody OX-7); type: in vivo, rat; conditions: per glomerulus, 7th day after OX-7; twice a day for 7 days; normal 1.8 +/− 0.3, solvent-administered 8.7 +/− 0.4
Description: Test Example 5 Activity on a Mesangial Proliferative Glomerulonephritis Model
Anti-rat Thy-1.1 monoclonal antibody OX-7 (Cedarlane) was administered to male Wistar-Kyoto rats (Charles River Japan, 160 g, 6 animals/group) in an amount of 1.0 mg/kg by intravenous administration through the tail vein. A test compound was suspended in a 0.5% solution of methylcellulose and the resulting suspension was administered to each of the rats twice a day for a period of 7 days starting on the day before the administration of OX-7. On the 7th day after the OX-7 administration, when mesangial cell growth and extracellular matrix hypertrophy became prominent, the left kidney of each rat was extirpated, fixed with 20% buffered formalin for 6 hours and wrapped in paraffin, followed by slicing. The obtained pieces were subjected to immune tissue staining using antibody Pd10 (DAKO) against a proliferative cell nuclear antigen. After comparative staining with Methyl Green staining solution using diaminobenzidine as a color developer, the paraffin sections were enclosed. Half of the glomeruli in a kidney piece were observed and the number of the cells in one glomerulus which were positive to the proliferative cell nuclear antigen was calculated. The test for the significance of difference was carried out by the Wilcoxon test.

melting point: 113 to 114 °C
SMILES: COc1cc2ncnc(N3CCN(C(=S)NCc4ccc5c(c4)OCO5)CC3)c2cc1OC [Compound 208, 4-(6,7-dimethoxy-4-quinazolinyl)-N-(3,4-methylenedioxybenzyl)-1-piperazinethiocarboxamide]
Number of cells which are positive to intranuclear antigen of proliferative cells (Wistar-Kyoto rats): 6.1 +/− 0.9
